The values that follow come from patent US10821079B2, “PKC activators and combinations thereof” (Cognitive Research Enterprises, Inc., priority 2011, dated 2020).

The subject of assay [1] is SH-SY5Y neuroblastoma cells. Nature of the assay: Neuronal and synaptic marker expression in cells treated with RA and Bryostatin-1 (immunofluorescence, immunoblot). In kind it is cell-based, human. The method, then: Human SH-SY5Y neuroblastoma cells (ATCC) were cultured in 45% F12K, 45% minimum Eagle's medium, 10% fetal calf serum. […] For differentiation of SH-SY5Y cells were maintained at 2% serum and treated with 10 μM RA for 72 hr. […] Medium was changed every 3 days with fresh supplementation of RA. Rat hippocampal neurons from 18-day-old embryonic Sprague-Dawley rat brains were plated on 24-well plates coated with poly-D-lysine (Sigma-Aldrich) in neurobasal medium supplemented with B-27 containing 0.5 mM glutamine and 25 μM glutamate (Invitrogen). The neuronal cells were grown under 5% CO2 for 14 days in an incubator maintained at 37° C.
Cells were harvested in homogenizing buffer containing 10 mM Tris-Cl (pH 7.4), 1 mM PMSF (phenylmethylsulfonyl fluoride), 1 mM EGTA, 1 mM EDTA, 50 mM NaF, and 20 μM leupeptin and were lysed by sonication. […] Protein concentration was measured using the Coomassie Plus (Bradford) Protein Assay kit (Pierce, USA). Following quantification, 20 μg of protein from each sample was subjected to SDS-PAGE analysis in 4-20% gradient Tris-Glycine gel (Invitrogen, USA). […] Western Blot was imaged in the ImageQuant RT-ECL (GE Life Sciences, Piscataway, N.J.) and densitometric quantification was performed using the IMAL software (Blanchette Rockefeller Neurosciences Institute, Morgantown, W. Va.). […]
(In general: In western blotting, separated proteins are transferred to a membrane and probed.)

A further assay concerns PKC-ε. Description: PKC-ε mRNA by RT-PCR in RA / Bryostatin-1 treated cells. In kind it is cell-based, human. The method, then:
RNA was isolated from the cells using Trizol reagent (Invitrogen, USA) following the manufacturer's protocol. Briefly, 5 μg of total RNA was reverse transcribed using oligo (dT) and Superscript III (Invitrogen, USA) at 50° C. for 1 hr. Two μl of the cDNA product was amplified using primers for PKC-ε (Forward Primer—[…], Reverse primer—[…]), and β-tubulin (Forward Primer—[…], Reverse primer—[…]) (Origene, Rockville, Md.) for 25 cycles following standard PCR protocols and 55° C. annealing temperature. The PCR amplicons were analyzed in an E-Gel (Invitrogen, USA). The gel image was documented using a Fuji Image gel scanner (FLA-9000, Fuji Film) and densitometric quantification was performed using the IMAL software (Blanchette Rockefeller Neurosciences Institute, Morgantown, W. Va.). Data were represented as normalized ratio of PKC-ε OD (Optical Density) against β-tubulin OD for three independent experiments.

In assay [2] the test system is phosphatidylserine (C2) binding site. Nature of the assay: 3H-DCPLA-ME binding to rat brain slices with competitors, film autoradiography. The method, then: To determine the binding site of DCPLA-ME, ^3H-DCPLA-ME was incubated with rat brain slices in the absence and presence of known C1 and C2 competitors. More specifically, rat brain sections were fixed with formaldehyde, sliced, and incubated with (1) ^3H-DCPLA-ME alone; (2) ^3H-DCPLA-ME with DCPLA; (3) ^3H-DCPLA-ME with Phorbol ester; or (4) ^3H-DCPLA-ME and Bryostatin 1. After incubation, the slices were washed with a buffer made of 130 mM NaCl, 5 mM MgCl, 5 mM KCl, 1 mM EGTA, and 0.1% bovine serum albumin in 10 mM HEPES-NaOH, pH 7.4, dried, and analyzed with film-autoradiography.

Regarding `CC1=C(/C=C/C(C)=C/C=C/C(C)=C/C(=O)O)C(C)(C)CCC1` [RA, All-trans retinoic acid], the “change in synaptophysin or PSD-95 (in words)” value in assay [1] (RA only) is “did not show much change”. Also, in the assay with PKC-ε, the “increase of mRNA level of PKC-ε” value was 2 fold.
On to `CCCCCC1CC1CC1CC1CCCCCCCC(=O)OC` (centres unmarked) [DCPLA-ME, methyl 8-(2-((2-pentylcyclopropyl)methyl)cyclopropyl)octanoate], for which, in assay [2], the “3H-DCPLA-ME binding, 30 nM competitor” value amounted to 64% and the “3H-DCPLA-ME binding, 1 μM competitor” value is given as 37%.
Consider `CCC/C=C/C=C/C(=O)O[C@H]1/C(=C/C(=O)OC)C[C@H]2C[C@H]([C@@H](C)O)OC(=O)C[C@H](O)C[C@@H]3C[C@H](OC(C)=O)C(C)(C)C(O)(C[C@@H]4C/C(=C/C(=O)OC)C[C@H](/C=C/C(C)(C)[C@]1(O)O2)O4)O3` [Bryostatin-1], for which, in assay [2], the “3H-DCPLA-ME binding, 30 nM competitor” value is on record as 100% and the “3H-DCPLA-ME binding, 1 μM competitor” value was found to be 77%. In addition, in assay [1] (alone, 72 hr), the “increase of synaptophysin expression (immunoblot)” value stood at 50%. In addition, the “increase of mRNA level of PKC-ε” value in the assay with PKC-ε was found to be 2 fold.
